# Experimental data reported in US20250268826A1, “IONIZABLE LIPIDOID COMPOSITIONS AND THERAPEUTIC USES THEREOF” (Flagship Pioneering Innovations VII, LLC, priority 2023, published 2025).
# Assay: LNP size and polydispersity index (PDI) by dynamic light scattering (DLS)
# Assay type: physicochemical
# Conditions: Table 6; LNP 50:10:38.5:1.5 mol %; hEPO mRNA; N:P 6
row,PDI,Structure (SMILES)
1,0.126,CCCCCCCCC(CCCCCC)C(=O)OCCN(CCOC(=O)C(CCCCCC)CCCCCCCC)C(=O)CCCN(C)C (stereo not drawn) [Compound 807]
2,0.114,CCCCCCCCC(CCCCCC)C(=O)OCCN(CCOC(=O)C(CCCCCC)CCCCCCCC)C(=O)CCN(C)C (stereo not drawn) [Compound 808]

# Same assay, conditions: Table 6; LNP 60:0:38.5:1.5 mol %; hEPO mRNA; N:P 6
PDI,Size [nm],Structure (SMILES)
0.079,114.7,CCCCCCCCC(CCCCCC)C(=O)OCCN(CCOC(=O)C(CCCCCC)CCCCCCCC)C(=O)CCCN(C)C (stereo not drawn) [Compound 807]
0.012,131.4,CCCCCCCCC(CCCCCC)C(=O)OCCN(CCOC(=O)C(CCCCCC)CCCCCCCC)C(=O)CCN(C)C (stereo not drawn) [Compound 808]

# Same assay, conditions: Table 6; LNP lipid:DSPC:Cholesterol:DMG-PEG2k 50:10:38.5:1.5 mol %; hEPO mRNA; N:P 6
row,Size [nm],Structure (SMILES)
1,77.7,CCCCCCCCC(CCCCCC)C(=O)OCCN(CCOC(=O)C(CCCCCC)CCCCCCCC)C(=O)CCCN(C)C (stereo not drawn) [Compound 807]
2,96.3,CCCCCCCCC(CCCCCC)C(=O)OCCN(CCOC(=O)C(CCCCCC)CCCCCCCC)C(=O)CCN(C)C (stereo not drawn) [Compound 808]

# Same assay, conditions: Table 7; LNP 30:10:58.5:1.5 mol %; helper lipid DOPC; hEPO mRNA; N:P 6
PDI,Size [nm],Structure (SMILES)
0.113,120.1,CCCCCCCCC(CCCCCC)C(=O)OCCN(CCOC(=O)C(CCCCCC)CCCCCCCC)C(=O)CCN(C)C (stereo not drawn) [Compound 808]

# Same assay, conditions: Table 7; LNP 30:10:58.5:1.5 mol %; helper lipid DOPE; hEPO mRNA; N:P 6
PDI,Size [nm],Structure (SMILES)
0.105,79.1,CCCCCCCCC(CCCCCC)C(=O)OCCN(CCOC(=O)C(CCCCCC)CCCCCCCC)C(=O)CCN(C)C (stereo not drawn) [Compound 808]

# Same assay, conditions: Table 7; LNP 30:10:58.5:1.5 mol %; helper lipid DSPC; hEPO mRNA; N:P 6
PDI,Size [nm],Structure (SMILES)
0.033,93.8,CCCCCCCCC(CCCCCC)C(=O)OCCN(CCOC(=O)C(CCCCCC)CCCCCCCC)C(=O)CCN(C)C (stereo not drawn) [Compound 808]

# Same assay, conditions: Table 7; LNP 50:10:38.5:1.5 mol %; helper lipid DOPC; hEPO mRNA; N:P 6
PDI,Size [nm],Structure (SMILES)
0.131,99.1,CCCCCCCCC(CCCCCC)C(=O)OCCN(CCOC(=O)C(CCCCCC)CCCCCCCC)C(=O)CCN(C)C (stereo not drawn) [Compound 808]

# Same assay, conditions: Table 7; LNP 50:10:38.5:1.5 mol %; helper lipid DOPE; hEPO mRNA; N:P 6
PDI,Size [nm],Structure (SMILES)
0.214,134.5,CCCCCCCCC(CCCCCC)C(=O)OCCN(CCOC(=O)C(CCCCCC)CCCCCCCC)C(=O)CCN(C)C (stereo not drawn) [Compound 808]

# Same assay, conditions: Table 7; LNP 50:10:38.5:1.5 mol %; helper lipid DSPC; hEPO mRNA; N:P 6
row,PDI,Structure (SMILES)
1,0.13,CCCCCCCCC(CCCCCC)C(=O)OCCN(CCOC(=O)C(CCCCCC)CCCCCCCC)C(=O)CCN(C)C (stereo not drawn) [Compound 808]

# Same assay, conditions: Table 7; LNP ionizable lipid:Helper Lipid:Cholesterol:DMG-PEG2k 50:10:38.5:1.5 mol %; helper lipid DSPC; hEPO mRNA; N:P 6
row,Size [nm],Structure (SMILES)
1,114.4,CCCCCCCCC(CCCCCC)C(=O)OCCN(CCOC(=O)C(CCCCCC)CCCCCCCC)C(=O)CCN(C)C (stereo not drawn) [Compound 808]

# Same assay, conditions: Table 8; LNP 50:10:38.5:1.5 mol %; hEPO mRNA; N:P 6
row,PDI,Structure (SMILES)
1,0.189,CCCCCCCCC(CCCCCC)C(=O)OCCN(CCOC(=O)C(CCCCCC)CCCCCCCC)C(=O)CCNC.Cl (stereo not drawn) [Compound 904]
2,0.204,CCCCCCCCC(CCCCCC)C(=O)OCCN(CCOC(=O)C(CCCCCC)CCCCCCCC)C(=O)CCNCC.Cl (stereo not drawn) [Compound 905]

# Same assay, conditions: Table 8; LNP Lipid:DSPC:Cholesterol:DMG-PEG2k 50:10:38.5:1.5 mol %; hEPO mRNA; N:P 6
row,Size [nm],Structure (SMILES)
1,86.7,CCCCCCCCC(CCCCCC)C(=O)OCCN(CCOC(=O)C(CCCCCC)CCCCCCCC)C(=O)CCNC.Cl (stereo not drawn) [Compound 904]
2,70.4,CCCCCCCCC(CCCCCC)C(=O)OCCN(CCOC(=O)C(CCCCCC)CCCCCCCC)C(=O)CCNCC.Cl (stereo not drawn) [Compound 905]

# Assay: LNP Zeta potential measured using a Zetasizer (Malvern)
# Assay type: physicochemical
# Conditions: Table 6; LNP 50:10:38.5:1.5 mol %; hEPO mRNA; N:P 6
row,Zeta potential [mV],Structure (SMILES)
1,−1.9,CCCCCCCCC(CCCCCC)C(=O)OCCN(CCOC(=O)C(CCCCCC)CCCCCCCC)C(=O)CCCN(C)C (stereo not drawn) [Compound 807]
2,−0.3,CCCCCCCCC(CCCCCC)C(=O)OCCN(CCOC(=O)C(CCCCCC)CCCCCCCC)C(=O)CCN(C)C (stereo not drawn) [Compound 808]

# Same assay, conditions: Table 6; LNP 60:0:38.5:1.5 mol %; hEPO mRNA; N:P 6
row,Zeta potential [mV],Structure (SMILES)
1,−0.6,CCCCCCCCC(CCCCCC)C(=O)OCCN(CCOC(=O)C(CCCCCC)CCCCCCCC)C(=O)CCCN(C)C (stereo not drawn) [Compound 807]
2,−0.4,CCCCCCCCC(CCCCCC)C(=O)OCCN(CCOC(=O)C(CCCCCC)CCCCCCCC)C(=O)CCN(C)C (stereo not drawn) [Compound 808]

# Same assay, conditions: Table 7; LNP 30:10:58.5:1.5 mol %; helper lipid DOPC; hEPO mRNA; N:P 6
row,Zeta potential [mV],Structure (SMILES)
1,−9.115,CCCCCCCCC(CCCCCC)C(=O)OCCN(CCOC(=O)C(CCCCCC)CCCCCCCC)C(=O)CCN(C)C (stereo not drawn) [Compound 808]

# Same assay, conditions: Table 7; LNP 30:10:58.5:1.5 mol %; helper lipid DOPE; hEPO mRNA; N:P 6
row,Zeta potential [mV],Structure (SMILES)
1,−10.16,CCCCCCCCC(CCCCCC)C(=O)OCCN(CCOC(=O)C(CCCCCC)CCCCCCCC)C(=O)CCN(C)C (stereo not drawn) [Compound 808]

# Same assay, conditions: Table 7; LNP 30:10:58.5:1.5 mol %; helper lipid DSPC; hEPO mRNA; N:P 6
row,Zeta potential [mV],Structure (SMILES)
1,−7.184,CCCCCCCCC(CCCCCC)C(=O)OCCN(CCOC(=O)C(CCCCCC)CCCCCCCC)C(=O)CCN(C)C (stereo not drawn) [Compound 808]

# Same assay, conditions: Table 7; LNP 50:10:38.5:1.5 mol %; helper lipid DOPC; hEPO mRNA; N:P 6
row,Zeta potential [mV],Structure (SMILES)
1,−8.233,CCCCCCCCC(CCCCCC)C(=O)OCCN(CCOC(=O)C(CCCCCC)CCCCCCCC)C(=O)CCN(C)C (stereo not drawn) [Compound 808]

# Same assay, conditions: Table 7; LNP 50:10:38.5:1.5 mol %; helper lipid DOPE; hEPO mRNA; N:P 6
row,Zeta potential [mV],Structure (SMILES)
1,−7.52,CCCCCCCCC(CCCCCC)C(=O)OCCN(CCOC(=O)C(CCCCCC)CCCCCCCC)C(=O)CCN(C)C (stereo not drawn) [Compound 808]

# Same assay, conditions: Table 7; LNP 50:10:38.5:1.5 mol %; helper lipid DSPC; hEPO mRNA; N:P 6
row,Zeta potential [mV],Structure (SMILES)
1,−7.7,CCCCCCCCC(CCCCCC)C(=O)OCCN(CCOC(=O)C(CCCCCC)CCCCCCCC)C(=O)CCN(C)C (stereo not drawn) [Compound 808]

# Same assay, conditions: Table 8; LNP 50:10:38.5:1.5 mol %; hEPO mRNA; N:P 6
row,Zeta potential [mV],Structure (SMILES)
1,−1.6,CCCCCCCCC(CCCCCC)C(=O)OCCN(CCOC(=O)C(CCCCCC)CCCCCCCC)C(=O)CCNC.Cl (stereo not drawn) [Compound 904]
2,−2.9,CCCCCCCCC(CCCCCC)C(=O)OCCN(CCOC(=O)C(CCCCCC)CCCCCCCC)C(=O)CCNCC.Cl (stereo not drawn) [Compound 905]

# Assay: Encapsulation efficiency (EE %) by fluorescence based Ribogreen assay
# Assay type: physicochemical
# Conditions: Table 6; LNP 50:10:38.5:1.5 mol %; hEPO mRNA; N:P 6
row,Encapsulation Efficiency % [%],Structure (SMILES)
1,98.3,CCCCCCCCC(CCCCCC)C(=O)OCCN(CCOC(=O)C(CCCCCC)CCCCCCCC)C(=O)CCCN(C)C (stereo not drawn) [Compound 807]
2,97,CCCCCCCCC(CCCCCC)C(=O)OCCN(CCOC(=O)C(CCCCCC)CCCCCCCC)C(=O)CCN(C)C (stereo not drawn) [Compound 808]

# Same assay, conditions: Table 6; LNP 60:0:38.5:1.5 mol %; hEPO mRNA; N:P 6
row,Encapsulation Efficiency % [%],Structure (SMILES)
1,99.7,CCCCCCCCC(CCCCCC)C(=O)OCCN(CCOC(=O)C(CCCCCC)CCCCCCCC)C(=O)CCCN(C)C (stereo not drawn) [Compound 807]
2,99.2,CCCCCCCCC(CCCCCC)C(=O)OCCN(CCOC(=O)C(CCCCCC)CCCCCCCC)C(=O)CCN(C)C (stereo not drawn) [Compound 808]

# Same assay, conditions: Table 7; LNP 30:10:58.5:1.5 mol %; helper lipid DOPC; hEPO mRNA; N:P 6
row,Encapsulation Efficiency % [%],Structure (SMILES)
1,99.5,CCCCCCCCC(CCCCCC)C(=O)OCCN(CCOC(=O)C(CCCCCC)CCCCCCCC)C(=O)CCN(C)C (stereo not drawn) [Compound 808]

# Same assay, conditions: Table 7; LNP 30:10:58.5:1.5 mol %; helper lipid DOPE; hEPO mRNA; N:P 6
row,Encapsulation Efficiency % [%],Structure (SMILES)
1,99.7,CCCCCCCCC(CCCCCC)C(=O)OCCN(CCOC(=O)C(CCCCCC)CCCCCCCC)C(=O)CCN(C)C (stereo not drawn) [Compound 808]

# Same assay, conditions: Table 7; LNP 30:10:58.5:1.5 mol %; helper lipid DSPC; hEPO mRNA; N:P 6
row,Encapsulation Efficiency % [%],Structure (SMILES)
1,99.6,CCCCCCCCC(CCCCCC)C(=O)OCCN(CCOC(=O)C(CCCCCC)CCCCCCCC)C(=O)CCN(C)C (stereo not drawn) [Compound 808]

# Same assay, conditions: Table 7; LNP 50:10:38.5:1.5 mol %; helper lipid DOPC; hEPO mRNA; N:P 6
row,Encapsulation Efficiency % [%],Structure (SMILES)
1,98.8,CCCCCCCCC(CCCCCC)C(=O)OCCN(CCOC(=O)C(CCCCCC)CCCCCCCC)C(=O)CCN(C)C (stereo not drawn) [Compound 808]

# Same assay, conditions: Table 7; LNP 50:10:38.5:1.5 mol %; helper lipid DOPE; hEPO mRNA; N:P 6
row,Encapsulation Efficiency % [%],Structure (SMILES)
1,99.5,CCCCCCCCC(CCCCCC)C(=O)OCCN(CCOC(=O)C(CCCCCC)CCCCCCCC)C(=O)CCN(C)C (stereo not drawn) [Compound 808]

# Same assay, conditions: Table 7; LNP 50:10:38.5:1.5 mol %; helper lipid DSPC; hEPO mRNA; N:P 6
row,Encapsulation Efficiency % [%],Structure (SMILES)
1,98.8,CCCCCCCCC(CCCCCC)C(=O)OCCN(CCOC(=O)C(CCCCCC)CCCCCCCC)C(=O)CCN(C)C (stereo not drawn) [Compound 808]

# Same assay, conditions: Table 8; LNP 50:10:38.5:1.5 mol %; hEPO mRNA; N:P 6
row,Encapsulation Efficiency % [%],Structure (SMILES)
1,100,CCCCCCCCC(CCCCCC)C(=O)OCCN(CCOC(=O)C(CCCCCC)CCCCCCCC)C(=O)CCNC.Cl (stereo not drawn) [Compound 904]
2,100,CCCCCCCCC(CCCCCC)C(=O)OCCN(CCOC(=O)C(CCCCCC)CCCCCCCC)C(=O)CCNCC.Cl (stereo not drawn) [Compound 905]
